Measured values as given in patent US5525731A, “Camptothecin analogues and methods of preparation thereof” (priority 1994, dated 1996).
“Also recorded” adds a separate entry of the source. Like-named read-outs stand apart in the source and are kept apart here.

Experiments:
844K cells = test: Cytotoxicity, XTT assay, 844K cells (so in the source); format: cell-based; conditions: Table II, read-out: Inhibitory Concentrations IC50
Procedure: (§1) The synthesized compounds were evaluated for their cytotoxic effects on HL-60 (human promyelocytic leukemia) and 833K cells. The assay was conducted in 96-well microplates. The compounds were serially diluted in 4 to 6 steps with dimethylsulfoxide and added to cell incubation medium (RPMI 1640 containing 10% fetal. […]) at the final concentration of 1.0% dimethylsulfoxide in the medium. The cytotoxicity of the compounds were determined by the XTT-microculture tetrazolium assay: 2',3'-bis(2-methoxy-4-nitro-5-sulfophenyl)-3-[(phenylamino)carbonyl]-2H-tetrazolium hydroxide (XTT) was prepared at 1 mg/mL in prewarmed (37° C.) medium without serum. Phenazine methosulfate (PMS) and fresh XTT were mixed together to obtain 0.075 mM PMS-XTT solution (25 mL of the stock with 5 mg PMS added per 5 mL of 1 mg/mL XTT). Fifty microliters of this mixture were added to each well of the cell culture after 72 hours exposure to the testing compound. After incubation at 37° C. for 6 hours, the absorbance was determined at 450 nm and 630 nm with a microplate reader (EL 340, Bio-Tek Instruments, Inc., Winooski, Vt.). THe median-effect inhibitory concentration (IC50) was determined from a medium-effect plot using computer software for the purpose.

B-16 melanoma = format: in vivo, BD2 F1 mice
Procedure: Average body weight changes were recorded daily.
Tumor: B16 Melanoma Drug A = Camptothecin
Inoculation: 2 × 10^6 cells. S.C.
(§2) Schedule: QD × 5. I.P. started day 4

[1] = Cytotoxicity of compound 33 (in words); format: cell-based; conditions: relative to camptothecin
topoisomerase-I = test: Inhibition of topoisomerase-I activity (in words); format: biochemical
Sarcoma 180 = system: Sarcoma 180
Procedure: The control lane (Table A) indicates separate inoculation of nine mice with B-16 melanoma and sarcoma 180.
Anti-tumor activity of the newly synthesized compounds and the established drugs (as positive controls) against solid tumors (B-16 melanoma and sarcoma 180) was tested in BD2 F1 mice. Tumor (about 2.5×10^6 cells) was inoculated subcutaneously (s.c.). Treatment with the drug started on day 4 after inoculation. The drug was injected intraperitoneously (i.p) daily (QD) for five days. Control mice received the same volume (50 μl) of the solvent vehicle (Dinso) as the drug-treated animals. Tumor size was evaluated every few days using a caliper for both the control and the treated group. Average body weight changes were recorded daily. Any lethality due to high dose drug toxicity or due to tumor progression was also recorded.
as §2

[2] = Reactivity with thiophenol in dichloromethane
Description: (For a related example of thiophenol addition to α-methylene-γ-lactones, see: Marshall, J. A., et al., J. Org. Chem., 47, 699 (1982).) NMR analysis of the crude reaction mixture indicated formation of the expected adducts 58 and 59.

833K cells = test: Cytotoxicity, XTT assay, 833K cell growth, 72 hr exposure; format: cell-based; conditions: for IC50: read-out: Inhibitory Concentrations IC50; for IC70: read-out: Inhibitory Concentrations IC70; for IC95: read-out: Inhibitory Concentrations IC95
Procedure: as §1
(§3) The results of the assay of cytotoxicity towards HL-60 and 833K cells of several analogues of camptothecin prepared in accord with the invention are illustrated in the accompanying Tables I and II, along with comparison data for native camptothecin. The data shown indicate that the camptothecin analogues prepared by the new methods provided by the invention have significant cytotoxic activity against cancer cells. […]

[3] = system: HL-60 cells (human promyelocytic leukemia); test: Cytotoxicity, XTT assay, HL-60 cell growth, 72 hr exposure; format: cell-based
Procedure: as §1, §3

[4] = B-16 melanoma, 10 mg/kg i.p. QD × 5, day 7
[5] = B-16 melanoma, 30 mg/kg i.p. QD × 5, day 7
[6] = Homo sapiens, HL-60, 72 h, read-out: Inhibitory Concentrations IC50, Table I, HL-60 (head HL-6), 72 hr, XTT
[7] = Homo sapiens, HL-60, 72 h, read-out: Inhibitory Concentrations IC50, Table II, HL-60, 72 hr, XTT
[8] = Homo sapiens, HL-60, 72 h, read-out: Inhibitory Concentrations IC70, Table I, HL-60 (head HL-6), 72 hr, XTT
[9] = Homo sapiens, HL-60, 72 h, read-out: Inhibitory Concentrations IC70, Table II, HL-60, 72 hr, XTT
[10] = Homo sapiens, HL-60, 72 h, read-out: Inhibitory Concentrations IC95, Table I, HL-60 (head HL-6), 72 hr, XTT
[11] = Homo sapiens, HL-60, 72 h, read-out: Inhibitory Concentrations IC95, Table II, HL-60, 72 hr, XTT
[12] = Homo sapiens, 72 h, Table I, 72 hr, XTT
[13] = Homo sapiens, Table I, 72 hr, XTT
[14] = Homo sapiens, HL-60, 72 h, Table I, HL-60 (head HL-6), 72 hr, XTT, read-out: Inhibitory Concentrations IC50
[15] = Homo sapiens, HL-60, 72 h, Table I, HL-60 (head HL-6), 72 hr, XTT, read-out: Inhibitory Concentrations IC70
[16] = Homo sapiens, HL-60, 72 h, Table I, HL-60 (head HL-6), 72 hr, XTT, read-out: Inhibitory Concentrations IC95
[17] = Homo sapiens, HL-60, 72 h, Table II, HL-60, 72 hr, XTT, read-out: Inhibitory Concentrations IC50
[18] = Homo sapiens, HL-60, 72 h, Table II, HL-60, 72 hr, XTT, read-out: Inhibitory Concentrations IC70
[19] = Homo sapiens, HL-60, 72 h, Table II, HL-60, 72 hr, XTT, read-out: Inhibitory Concentrations IC95
[20] = Table I, HL-60 (head HL-6), 72 hr, XTT
[21] = Table I, HL-60 (head HL-6), 72 hr, XTT, read-out: Inhibitory Concentrations IC50
[22] = Table II, HL-60, 72 hr, XTT, read-out: Inhibitory Concentrations IC50
[23] = Table II, HL-60, 72 hr, XTT, read-out: Inhibitory Concentrations IC70
[24] = Table II, HL-60, 72 hr, XTT, read-out: Inhibitory Concentrations IC95

CC[C@@]1(O)C(=O)OCc2c1cc1n(c2=O)Cc2cc3c(CN(C)C)c(O)ccc3nc2-1 [Topotecan]
IC50 (844K cells): 46 nM

C=C1C(=O)OCc2c1cc1n(c2=O)Cc2c-1nc1ccc(O)cc1c2CC [Compound 33, 7-Ethyl-10-hydroxy-18-nor-anhydrocamptothecin]
AVERAGE TUMOR VOLUME (B-16 melanoma; B16 melanoma, 10 mg/kg, day 7): 0.163 CM^3
PERCENT OF CONTROL (tumor volume) (B-16 melanoma; B16 melanoma, 10 mg/kg, day 7): 85.8%
AVERAGE TUMOR VOLUME (B-16 melanoma; B16 melanoma, 10 mg/kg, day 14): 2.320 CM^3
AWC (average weight change) (B-16 melanoma; B16 melanoma, 10 mg/kg, day 14): +2.7 GM
PERCENT OF CONTROL (tumor volume) (B-16 melanoma; B16 melanoma, 10 mg/kg, day 14): 72.7%
AVERAGE TUMOR VOLUME (B-16 melanoma; B16 melanoma, 30 mg/kg, day 7): 0.036 CM^3
PERCENT OF CONTROL (tumor volume) (B-16 melanoma; B16 melanoma, 30 mg/kg, day 7): 18.9%
AVERAGE TUMOR VOLUME (B-16 melanoma; B16 melanoma, 30 mg/kg, day 14): 2.925 CM^3
AWC (average weight change) (B-16 melanoma; B16 melanoma, 30 mg/kg, day 14): +2.7 GM
PERCENT OF CONTROL (tumor volume) (B-16 melanoma; B16 melanoma, 30 mg/kg, day 14): 91.7%
activity compared with authentic camptothecin (B-16 melanoma; B-16 melanoma and sarcoma 180 together): compares favorably with that of authentic camptothecin
decreased body weight (B-16 melanoma; B-16 melanoma, 10 mg/kg): 1.4 gm
tumor volume decrease (B-16 melanoma; B-16 melanoma, 10 mg/kg): 14%
AWC (average weight change) (B-16 melanoma; [4]): -1.4 gm
Ave Tumor Volume (T/C) (B-16 melanoma; [4]): 0.858
decreased body weight (B-16 melanoma; B-16 melanoma, 30 mg/kg): 1.9 gm
tumor volume decrease (B-16 melanoma; B-16 melanoma, 30 mg/kg): 81%
AWC (average weight change) (B-16 melanoma; [5]): -1.9 gm
Ave Tumor Volume (T/C) (B-16 melanoma; [5]): 0.189
cytotoxicity [1]: significantly reduced levels relative to camptothecin
inhibition of topoisomerase-I activity (topoisomerase-I): potent camptothecin-like inhibition of topoisomerase-I activity; also recorded: still retaining enzyme inhibitory function
DEATHS (D/L) (Sarcoma 180; Sarcoma 180, 10 mg/kg, day 7): 0/2
DEATHS (D/L) (Sarcoma 180; Sarcoma 180, 10 mg/kg, day 14): 0/2
DEATHS (D/L) (Sarcoma 180; Sarcoma 180, 30 mg/kg, day 7, death on day 4 after treatment, listed as 18-nor-20-dehydro-7-ethyl-10-hydroxycamptothecin): one of the two subjects died after day 4 of treatment
DEATHS (D/L) (Sarcoma 180; Sarcoma 180, 30 mg/kg, day 7, death on day 4 after treatment, listed as 20-CH2 -7-Et-10-OH-CPT): One of two mice died on day 4 after treatment
DEATHS (D/L) (Sarcoma 180; Sarcoma 180, 30 mg/kg, day 7, death on day 4 after treatment, listed as B): 1/2
DEATHS (D/L) (Sarcoma 180; Sarcoma 180, 30 mg/kg, day 14): 0/1
reaction with thiophenol [2]: consumption of starting material

C=C1C(=O)OCc2c1cc1n(c2=O)Cc2cc3ccccc3nc2-1 [Compound 32, 18-nor-anhydrocamptothecin]
inhibition of topoisomerase-I activity (topoisomerase-I): potent camptothecin-like inhibition of topoisomerase-I activity
reaction with thiophenol [2]: consumption of starting material

CC1(O)C(=O)OCc2c1cc1n(c2=O)Cc2cc3ccccc3nc2-1 (stereo not shown) [WS-7, 20-Methylcamptothecin]
IC50 (833K cells; Homo sapiens, 72 h): 82 nM
IC70 (833K cells; Homo sapiens, 72 h): 290 nM
IC95 (833K cells; Homo sapiens, 72 h): 7160 nM
IC50 [3, 6]: 62 nM
IC50 [3, 7]: 62 nM
IC70 [3, 8]: 90 nM
IC70 [3, 9]: 90 nM
IC95 [3, 10]: 229 nM
IC95 [3, 11]: 229 nM

CCC1(O)C(=O)OC(C)c2c1cc1n(c2=O)Cc2cc3ccccc3nc2-1 (stereo not shown) [WS-6, 17-Methylcamptothecin]
IC50 (833K cells; Homo sapiens, 72 h): 3710 nM
IC70 (833K cells; Homo sapiens, 72 h): 7340 nM
IC95 (833K cells; Homo sapiens, 72 h): 40100 nM
IC50 [3, 6]: 266 nM
IC50 [3, 7]: 266 nM
IC70 [3, 8]: 432 nM
IC70 [3, 9]: 432 nM
IC95 [3, 10]: 1430 nM
IC95 [3, 11]: 1430 nM

CC=C1C(=O)OCc2c1cc1n(c2=O)Cc2cc3ccccc3nc2-1 [WS-8, 20-dehydrated-CPT]
IC50 (833K cells; [12]): 1700 nM
IC70 (833K cells; [13]): 4750 nM
IC95 (833K cells; [13]): 50400 ± 13800 nM
IC50 [3, 14]: 3440 nM
IC70 [3, 15]: 5470 nM
IC95 [3, 16]: 17100 nM
IC50 [3, 17]: 3440 nM
IC70 [3, 18]: 5470 nM
IC95 [3, 19]: 17100 nM

CCC1(O)C(=O)OCc2c1c(C(=O)OC)c1n(c2=O)Cc2cc3ccccc3nc2-1 (stereo not shown) [WS-5, 14-Carbomethoxy-Camptothecin]
IC50 (833K cells; Homo sapiens, 72 h): 63500 nM
IC70 (833K cells; Homo sapiens, 72 h): 83700 nM
IC95 (833K cells; Homo sapiens, 72 h): 898000 ± 750000 nM
IC50 [3, 6]: > 5000 nM
IC50 [3, 7]: > 5000 nM

CCC1C(=O)OCc2c1cc1n(c2=O)Cc2cc3ccccc3nc2-1 (stereo not shown) [WS-2, 20-Deoxycamptothecin]
IC50 (833K cells; [12]): 310 nM
IC70 (833K cells; [13]): 143 nM
IC95 (833K cells; [13]): 3170 nM
IC50 [3, 14]: 39 nM
IC70 [3, 15]: 52 nM
IC95 [3, 16]: 109 nM
IC50 [3, 17]: 39 nM
IC70 [3, 18]: 52 nM
IC95 [3, 19]: 109 nM

CCC1C(=O)OCc2c1c(C(=O)OC)c1n(c2=O)Cc2cc3ccccc3nc2-1 (stereo not shown) [WS-4, 14-Carbomethoxy-20-deoxycamptothecin]
IC70 (833K cells; [13]): 5800 nM
IC95 (833K cells; [13]): 59800 nM
IC50 (833K cells; Table I, 72 hr, XTT): 2260 nM
Inhibitory Concentrations IC70 [3, 20]: 12.0
Inhibitory Concentrations IC95 [3, 20]: 618.7
IC50 [3, 21]: 2440 nM
IC50 [3, 22]: 2440 nM
IC70 [3, 23]: 12000 nM
IC95 [3, 24]: 618700 nM

CCC1C(=O)OCc2c1c(C(=O)OC)c1n(c2=O)Cc2cc3ccccc3nc2-1 (stereo not shown) [WS-3, 14-Carbomethoxy-20-deoxycamptothecin]
IC50 (833K cells; Table I, 72 hr, XTT): > 50000 nM
Inhibitory Concentrations IC70 [3, 20]: 0.318
Inhibitory Concentrations IC95 [3, 20]: 1.082
IC50 [3, 21]: 914 nM
IC50 [3, 22]: 194 nM
IC70 [3, 23]: 318 nM
IC95 [3, 24]: 1082 nM
